Measured values as given in patent US12478620B2, “Cyano-substituted cyclic hydrazine derivative and application thereof” (E-nitiate Biopharmaceuticals (Hangzhou) Co., Ltd, priority 2019, dated 2025).

Assays:
JAK2 = JAK2 (Homo sapiens, UniProt O60674); experiment: JAK kinase inhibitor activity detection (ULight-JAK-1 substrate, Eu-labeled anti-phosphotyrosine antibody), JAK2; type: biochemical; details: JAK2 0.125 nM, substrate 50 nM, ATP 10 μM, 1 h room temperature
Method: (§1) Activity Detection of Small Molecule Inhibitors of JAK Kinase
(§2) • (1) kinase reaction buffer • Prepare the kinase reaction buffer with the following components: 50 mM HEPES, pH 7.5, 1 mM EGTA, 10 mM MgCl2, 2 mM DTT, 0.01% Tween20 • (2) 1× detection buffer • To prepare detection buffer, dilute 10× detection buffer to 1× with deionized water 9:1 • (3) 4× kinase solution • Dilute JAK to 4× final concentration by JAK reaction buffer (JAK1: 40 nM, JAK2: 0.5 nM) • (4) 4× substrate solution • Dilute ULight™-JAK-1 (Tyr1023) substrate to 200 nM by kinase reaction buffer (final concentration: 50 nM) • (5) 4×ATP solution • Dilute ATP to 4× final concentration by kinase reaction buffer (JAK1: 160 μM, JAK2: 40 μM) • (6) 4× compound testing solution • DMSO dissolves the testing compound into 10 mM stock solution, then prepared to the desired concentration with 3-fold serial dilution, and 10 concentration points were set for each compound. Besides, the final concentration range of the testing compound is: 10 μM-0.5 nM • (7) 4× enzyme reaction termination liquid • 1× test buffer dissolves EDTA to 40 mM (EDTA final concentration: 10 mM) • (8) 4× antibody detection solution • 1× test buffer dilutes Eu labeled antibody (anti-phosphotyrosine (PT66)) to 8 nM (antibody final concentration: 2 nM) 2. Experimental Process • (1) Successively add 2.5 μL 4×JAK solution, and 2.5 μL of diluted 4× test compound solution in different concentrations to the 384 microporous plate, and set 2 multi-wells for each concentration. Meanwhile, set enzyme solution blank control group and negative control group (DMSO group). • (2) Shake the 384-hole plate, mix enzymes and compounds, centrifuge at 1000 rpm for 1 minute, and incubate at room temperature for 60 minutes • (3) Add 2.5 μL of 4× substrate solution to a 384-hole plate and centrifuge at 1000 rpm for 1 min • (4) Add 2.5 μL of 4×ATP solution to the 384 multi-well plate and centrifuge at 1000 rpm for 1 minute to initiate the enzyme reaction. • (5) JAK1 reacts at room temperature for 2 h, and JAK2 react at room temperature for 1 h. • (6) The final concentrations of each group of the JAK1 reaction are: JAK1: 10 nM, substrate: 50 nM, ATP: 40 uM, and the final concentration range of the test compound is: 10 μM-0.5 nM • The final concentrations of each group of the JAK2 reaction are: JAK2: 0.125 nM, substrate: 50 nM, ATP: 10 μM, and the final concentration range of test compounds is: 10 μM-0.5 nM • (7) After the enzyme reaction, add 5 μL of 4× enzyme reaction stop solution to each well of the 384-well plate with 1000 rpm, centrifuge for 1 minute, and incubate at room temperature for 5 min. • (8) Add 5 μL of 4× detection antibody solution to each well of a 384-well plate (final concentration of detection antibody is 2 nM) with 1000 rpm, centrifuge for 1 minute, and incubate at room temperature for 1 h. • (10) After antibody incubation, measure the signal value of each well on an Envision plate reader 3. Data Analysis • (1) Taking the enzyme solution blank control group as 100% inhibition rate and the negative control group (DMSO group) as 0% inhibition rate, calculate the percentage inhibition rate corresponding to each concentration of the tested compounds • (2) In GraphPad Prism software, nonlinear regression analysis is performed on the concentration logarithm of the test compound and the corresponding percentage inhibition rate to obtain the half-inhibitory concentration (IC50) of the test compound.

JAK1 = JAK1 (Homo sapiens, UniProt P23458); experiment: JAK kinase inhibitor activity detection (ULight-JAK-1 substrate, Eu-labeled anti-phosphotyrosine antibody), JAK1; type: biochemical; details: JAK1 10 nM, substrate 50 nM, ATP 40 uM, 2 h room temperature
Method: as §1, §2

JAK2, sequence (O60674 whole entry, species assumed): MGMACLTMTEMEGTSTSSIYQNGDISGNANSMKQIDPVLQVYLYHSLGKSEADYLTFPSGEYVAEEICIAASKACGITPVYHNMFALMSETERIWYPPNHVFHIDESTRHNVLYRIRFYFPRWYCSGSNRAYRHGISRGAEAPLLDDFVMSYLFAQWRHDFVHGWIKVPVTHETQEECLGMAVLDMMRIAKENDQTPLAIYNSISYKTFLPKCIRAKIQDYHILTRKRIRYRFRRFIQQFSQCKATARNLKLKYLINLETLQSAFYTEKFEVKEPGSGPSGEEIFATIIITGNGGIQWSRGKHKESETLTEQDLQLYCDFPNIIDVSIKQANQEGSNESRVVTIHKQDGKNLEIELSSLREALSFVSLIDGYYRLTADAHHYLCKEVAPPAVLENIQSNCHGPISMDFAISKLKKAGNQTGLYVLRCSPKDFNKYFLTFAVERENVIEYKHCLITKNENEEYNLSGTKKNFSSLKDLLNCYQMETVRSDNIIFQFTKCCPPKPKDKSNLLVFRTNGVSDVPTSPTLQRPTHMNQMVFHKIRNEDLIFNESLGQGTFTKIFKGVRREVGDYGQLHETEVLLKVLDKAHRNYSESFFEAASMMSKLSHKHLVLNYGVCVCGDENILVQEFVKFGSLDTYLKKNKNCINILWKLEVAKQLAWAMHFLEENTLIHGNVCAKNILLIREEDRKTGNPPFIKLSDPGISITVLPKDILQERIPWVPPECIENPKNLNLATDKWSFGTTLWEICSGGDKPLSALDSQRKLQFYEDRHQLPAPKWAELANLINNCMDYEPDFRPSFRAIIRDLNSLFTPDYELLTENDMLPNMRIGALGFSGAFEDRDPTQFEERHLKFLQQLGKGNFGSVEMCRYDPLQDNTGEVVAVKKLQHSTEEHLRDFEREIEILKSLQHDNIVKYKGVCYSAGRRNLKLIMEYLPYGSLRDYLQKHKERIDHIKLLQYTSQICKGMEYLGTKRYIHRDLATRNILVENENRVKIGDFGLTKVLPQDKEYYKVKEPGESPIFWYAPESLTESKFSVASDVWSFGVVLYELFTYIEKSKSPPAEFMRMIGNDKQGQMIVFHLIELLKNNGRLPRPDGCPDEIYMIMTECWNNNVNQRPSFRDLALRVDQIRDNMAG
JAK1, sequence (P23458 whole entry, species assumed): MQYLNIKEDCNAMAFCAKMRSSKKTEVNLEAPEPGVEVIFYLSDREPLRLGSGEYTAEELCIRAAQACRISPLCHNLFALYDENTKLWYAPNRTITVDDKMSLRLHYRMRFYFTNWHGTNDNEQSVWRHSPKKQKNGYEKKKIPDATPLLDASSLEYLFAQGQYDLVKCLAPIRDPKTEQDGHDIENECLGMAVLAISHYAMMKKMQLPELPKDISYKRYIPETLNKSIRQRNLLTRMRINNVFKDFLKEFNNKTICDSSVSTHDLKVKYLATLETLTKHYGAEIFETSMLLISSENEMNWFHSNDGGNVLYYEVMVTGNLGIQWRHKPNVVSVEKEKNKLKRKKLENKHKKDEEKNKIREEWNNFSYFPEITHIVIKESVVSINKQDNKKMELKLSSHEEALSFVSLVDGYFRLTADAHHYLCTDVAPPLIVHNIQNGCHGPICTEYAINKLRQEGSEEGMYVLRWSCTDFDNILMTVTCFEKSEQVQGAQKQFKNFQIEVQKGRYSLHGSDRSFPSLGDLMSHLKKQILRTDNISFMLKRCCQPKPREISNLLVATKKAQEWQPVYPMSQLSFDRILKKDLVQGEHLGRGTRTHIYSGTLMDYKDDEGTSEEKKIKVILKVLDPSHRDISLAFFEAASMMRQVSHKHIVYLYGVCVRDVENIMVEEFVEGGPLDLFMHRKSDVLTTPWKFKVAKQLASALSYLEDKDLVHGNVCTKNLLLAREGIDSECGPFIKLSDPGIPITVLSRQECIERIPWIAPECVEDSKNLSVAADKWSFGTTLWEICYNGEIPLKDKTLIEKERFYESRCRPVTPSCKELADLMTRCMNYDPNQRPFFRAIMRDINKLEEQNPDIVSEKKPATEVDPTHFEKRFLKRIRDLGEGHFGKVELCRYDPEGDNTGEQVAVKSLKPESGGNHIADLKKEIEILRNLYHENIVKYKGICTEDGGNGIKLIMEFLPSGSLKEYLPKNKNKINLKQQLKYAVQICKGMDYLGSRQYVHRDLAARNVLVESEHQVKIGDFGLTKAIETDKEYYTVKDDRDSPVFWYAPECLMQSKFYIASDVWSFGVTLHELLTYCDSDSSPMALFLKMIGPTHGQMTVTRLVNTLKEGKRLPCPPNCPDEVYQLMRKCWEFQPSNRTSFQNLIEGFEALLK

Structure (SMILES): N#CC1CCN(n2cnc3cnc4[nH]ccc4c32)CC1 [Example 1, 1-(imidazo[4,5-d]pyrrolo[2,3-b]pyridine-1(6H)-yl)piperidine-4-carbonitrile]
- IC50 (JAK2): 70.9 nM
- IC50 (JAK1): 23.8 nM

Structure (SMILES): N#CCC1CCN(n2cnc3cnc4[nH]ccc4c32)CC1 [Example 2, 2-(1-(imidazo[4,5-d]pyrrolo[2,3-b]pyridine-1(6H)-yl)piperidin-4-yl)acetonitrile]
- IC50 (JAK2): 1.7 nM
- IC50 (JAK1): 0.28 nM

Structure (SMILES): Cc1nc2cnc3[nH]ccc3c2n1N1CCC(CC#N)CC1 [Example 3, 2-(1-(methylimidazo[4,5-d]pyrrolo[2,3-b]pyridine-1(6H)-yl)piperidin-4-yl)acetonitrile]
- IC50 (JAK2): 0.28 nM
- IC50 (JAK1): 0.17 nM

Structure (SMILES): CCc1nc2cnc3[nH]ccc3c2n1N1CCC(CC#N)CC1 [Example 4, 2-(1-(ethylimidazo[4,5-d]pyrrolo[2,3-b]pyridine-1(6H)-yl)piperidin-4-yl)acetonitrile]
- IC50 (JAK2): 0.95 nM
- IC50 (JAK1): 0.47 nM

Structure (SMILES): N#CCC1CCN(n2c(CO)nc3cnc4[nH]ccc4c32)CC1 [Example 5, 2-(1-(2-(hydroxymethyl)imidazo[4,5-d]pyrrolo[2,3-b]pyridine-1(6H)-yl)piperidin-4-yl)acetonitrile]
- IC50 (JAK2): 1.45 nM
- IC50 (JAK1): 0.28 nM

Structure (SMILES): N#CCC1CCN(n2c(CCO)nc3cnc4[nH]ccc4c32)CC1 [Example 6, 2-(1-(2-(2-hydroxyethyl)imidazo[4,5-d]pyrrolo[2,3-b]pyridine-1(6H)-yl)piperidin-4-yl)acetonitrile]
- IC50 (JAK2): 3.89 nM
- IC50 (JAK1): 0.66 nM

Structure (SMILES): C[C@@H](O)c1nc2cnc3[nH]ccc3c2n1N1CCC(CC#N)CC1 [Example 7, (R)-2-(1-(2-(1-hydroxyethyl)imidazo[4,5-d]pyrrolo[2,3-b]pyridine-1(6H)-yl)piperidin-4-yl)acetonitrile]
- IC50 (JAK2): 4 nM
- IC50 (JAK1): 0.08 nM

Structure (SMILES): C[C@H](O)c1nc2cnc3[nH]ccc3c2n1N1CCC(CC#N)CC1 [Example 8, (S)-2-(1-(2-(1-hydroxyethyl)imidazo[4,5-d]pyrrolo[2,3-b]pyridine-1(6H)-yl)piperidin-4-yl)acetonitrile]
- IC50 (JAK2): 5 nM
- IC50 (JAK1): 1.5 nM

Structure (SMILES): N#CCC1CCN(n2c(N)nc3cnc4[nH]ccc4c32)CC1 [Example 9, 2-(1-(2-aminoimidazo[4,5-d]pyrrolo[2,3-b]pyridine-1(6H)-yl)piperidin-4-yl)acetonitrile]
- IC50 (JAK2): 0.7 nM
- IC50 (JAK1): 0.14 nM

Structure (SMILES): CS(=O)(=O)NCc1nc2cnc3[nH]ccc3c2n1N1CCC(CC#N)CC1 [Example 10, N-((1-(4-(cyanomethyl)piperidin-1-yl)-1,6-dihydroimidazole[4,5-d]pyrrolo[2,3-b]pyridine-2-yl)methyl)methanesulfonamide]
- IC50 (JAK2): 6.1 nM
- IC50 (JAK1): 0.8 nM

Structure (SMILES): N#CCCC1CCN(n2cnc3cnc4[nH]ccc4c32)CC1 [Example 11]
- IC50 (JAK2): 2.98 nM
- IC50 (JAK1): 0.57 nM

Structure (SMILES): N#CC1CC12CCN(n1cnc3cnc4[nH]ccc4c31)CC2 (stereo not shown) [Example 12, 6-(imidazo[4,5-d]pyrrolo[2,3-b]pyridine-1(6H)-yl)-6-azaspiro[2.5]octane-1-carbonitrile]
- IC50 (JAK2): 3.28 nM
- IC50 (JAK1): 1.77 nM

Structure (SMILES): C[C@@H](O)c1nc2cnc3[nH]ccc3c2n1N1CCC2(CC1)CC2C#N (stereo partly drawn) [Example 13, 6-(2-((R)-1-hydroxyethyl)imidazo[4,5-d]pyrrolo[2,3-b]pyridine-1(6H)-yl)-6-azaspiro[2.5]octane-1-carbonitrile]
- IC50 (JAK2): 56.7 nM
- IC50 (JAK1): 16 nM

Structure (SMILES): CC(C)(C#N)C1CCN(n2cnc3cnc4[nH]ccc4c32)CC1 [Example 14, 2-(1-(imidazo[4,5-d]pyrrolo[2,3-b]pyridine-1(6H)-yl)piperidine-4-yl)-2-methyl propionitrile]
- IC50 (JAK2): 7.5 nM
- IC50 (JAK1): 13.5 nM

Structure (SMILES): C[C@@H](O)c1nc2cnc3[nH]ccc3c2n1N1CCC(C(C)(C)C#N)CC1 [Example 15, (R)-2-(1-(2-(1-hydroxyethyl)imidazo[4,5-d]pyrrolo[2,3-b]pyridine-1(6H)-yl)piperidine-4-yl)-2-methyl propionitrile]
- IC50 (JAK2): 16.1 nM
- IC50 (JAK1): 5.14 nM

Structure (SMILES): N#CC=C1CCN(n2cnc3cnc4[nH]ccc4c32)CC1 [Example 16, 2-(1-(imidazo[4,5-d]pyrrolo[2,3-b]pyridin-1(6H)-yl)piperidin-4-ylidene)acetonitrile]
- IC50 (JAK2): 16.1 nM
- IC50 (JAK1): 1.31 nM

Structure (SMILES): CC1(CC#N)CCN(n2cnc3cnc4[nH]ccc4c32)CC1 [Example 17, 2-(1-(imidazo[4,5-d]pyrrolo[2,3-b]pyridine-1(6H)-yl)-4-methylpiperidine-4-yl)acetonitrile]
- IC50 (JAK2): 1.2 nM
- IC50 (JAK1): 2 nM

Structure (SMILES): C[C@@H](O)c1nc2cnc3[nH]ccc3c2n1N1CCC(C)(CC#N)CC1 [Example 18, (R)-2-(1-(2-(1-hydroxyethyl)imidazo[4,5-d]pyrrolo[2,3-b]pyridine-1(6H)-yl)-4-methylpiperidine-4-yl)acetonitrile]
- IC50 (JAK2): 13.8 nM
- IC50 (JAK1): 6.31 nM

Structure (SMILES): N#CCC1(O)CCN(n2cnc3cnc4[nH]ccc4c32)CC1 [Example 19, 2-(4-hydroxy-1-(imidazo[4,5-d]pyrrolo[2,3-b]pyridine-1(6H)-yl)-piperidine-4-yl)acetonitrile]
- IC50 (JAK2): 6.01 nM
- IC50 (JAK1): 2.37 nM

Structure (SMILES): N#CC=C1CC2CCC(C1)N2n1cnc2cnc3[nH]ccc3c21 [Example 20, 2-(8-(imidazo[4,5-d]pyrrolo[2,3-b]pyridin-1(6H)-yl)-8-azabicyclo[3.2.1]octan-3-ylidene)acetonitrile]
- IC50 (JAK2): 1.9 nM
- IC50 (JAK1): 4.3 nM

Structure (SMILES): N#CCC1CC2CCC(C1)N2n1cnc2cnc3[nH]ccc3c21 (stereo not shown) [Example 21, 2-(8-(imidazo[4,5-d]pyrrolo[2,3-b]pyridin-1(6H)-yl)-8-azabicyclo[3.2.1]octan-3-yl)acetonitrile]
- IC50 (JAK2): 4.77 nM
- IC50 (JAK1): 0.92 nM

Structure (SMILES): C[C@@H](O)c1nc2cnc3[nH]ccc3c2n1N1C2CCC1CC(=CC#N)C2 [Example 22, 2-(8-(2-((R)-1-hydroxyethyl)imidazo[4,5-d]pyrrolo[2,3-b]pyridin-1(6H)-yl)-8-azabicyclo[3.2.1]octan-3-ylidene)acetonitrile]
- IC50 (JAK2): 4.04 nM
- IC50 (JAK1): 1.6 nM

Structure (SMILES): C[C@@H](O)c1nc2cnc3[nH]ccc3c2n1N1C2CCC1CC(CC#N)C2 (stereo partly drawn) [Example 23, 2-(8-(2-((R)-1-hydroxyethyl)imidazo[4,5-d]pyrrolo[2,3-b]pyridin-1(6H)-yl)-8-azabicyclo[3.2.1]octan-3-yl)acetonitrile]
- IC50 (JAK2): 6.07 nM
- IC50 (JAK1): 2.71 nM

Structure (SMILES): N#CCN1CCN(n2cnc3cnc4[nH]ccc4c32)CC1 [Example 24, 3-(4-(imidazo[4,5-d]pyrrolo[2,3-b]pyridin-1(6H)-yl)piperazin-1-yl)acetonitrile]
- IC50 (JAK2): 46.6 nM
- IC50 (JAK1): 7.72 nM

Structure (SMILES): N#CCCN1CCN(n2cnc3cnc4[nH]ccc4c32)CC1 [Example 25, 3-(4-(imidazo[4,5-d]pyrrolo[2,3-b]pyridin-1(6H)-yl)piperazin-1-yl)propanenitrile]
- IC50 (JAK2): 5.3 nM
- IC50 (JAK1): 5.2 nM

Structure (SMILES): N#CCC(=O)N1CCN(n2cnc3cnc4[nH]ccc4c32)CC1 [Example 26, 3-(4-(imidazo[4,5-d]pyrrorolo[2,3-b]pyridin-1(6H)-yl)piperazin-1-yl)oxypropionitrile]
- IC50 (JAK2): 151 nM
- IC50 (JAK1): 41.7 nM

Structure (SMILES): C[C@@H](O)c1nc2cnc3[nH]ccc3c2n1N1CCCC(CC#N)CC1 (stereo partly drawn) [Example 27, 2-(1-(2-((R)-1-hydroxyethyl)imidazo[4,5-d]pyrrolo[2,3-b]pyridin-1(6H)-yl)-6-azepan-4-yl)acetonitrile]
- IC50 (JAK2): 2.3 nM
- IC50 (JAK1): 1.7 nM

Structure (SMILES): CCC1CN(C(=O)CC#N)CN1n1cnc2cnc3[nH]ccc3c21 (stereo not shown) [Example 28]
- IC50 (JAK2): 13.1 nM
- IC50 (JAK1): 3.5 nM

Structure (SMILES): CCC1CN(CCC#N)CN1n1cnc2cnc3[nH]ccc3c21 (stereo not shown) [Example 29, 3-(4-ethyl-3-(imidazo[4,5-d]pyrrolo[2,3-b]pyridine-1(6H)-yl)imidazolidine-1-yl)propionitrile]
- IC50 (JAK2): 27.5 nM
- IC50 (JAK1): 13.9 nM
